Measurements taken from US7968081B2, “Peptide for diagnosing, preventing and treating atherosclerosis and uses thereof” (Kyungpook National University Industry—Academic Cooperation …, priority 2007, dated 2011).
Values belong to the molecule of their own block, whether it stands above or below them. Ends that are not written are not given here. * marks the point of attachment. FITC = O=C1OC2(c3ccc(O)cc3Oc3cc(O)ccc32)c2ccc(NC(=S)*)cc21

How the values were obtained:
[1] = test system: atherosclerotic plaque tissues; assay: In vivo atherosclerotic targeting of radioisotope-conjugated peptide (autoradiography of aortae); parameters: species or system mice; details: tail vein, circulation 15 min
Protocol: In order to evaluate in vivo targetability of an inventive peptide through a higher sensitivity method, the peptide was synthesized and then an N-terminus of the peptide was tagged with a radioisotope (^111In). The ^111In-tagged peptide of the present invention at a dose of 160 μCi was injected via the tail vein into the blood of atherosclerotic mice and normal mice, followed by circulation for 15 min. Thereafter, aortae were removed from each mouse and autoradiography with X-ray film exposure was carried out. As a control group, the ^123I-tagged peptide (^123I-CLEVSRKNC) was injected at a dose of 104 μCi.

[2] = test system: atherosclerotic plaque tissues; assay: In vivo atherosclerotic targeting of fluorescent dye-conjugated peptide (fluorescence microscopy of frozen sections); details: atherosclerosis-induced mice; final blood concentration 50 μM via left ventricle, circulation 15 min
Description: C57BL/6 mice (Ldlr−/−) into which deficiency of a low-density lipoprotein (LDL) receptor was introduced by a genetic engineering technique were fed daily for 10 weeks with 3 g of high-cholesterol diet, thereby inducing atherosclerosis in animals. The high-cholesterol diet was a special animal feed containing 1.25% cholesterol, 15% fat and 0.5% cholate (Oriental Yeast Co., Japan).
Here, the peptide was synthesized by tagging an N-terminus of the peptide with FITC (fluorescein isothiocyanate) as a green fluorescent dye. The synthesized FITC-CRKRLDRNC peptide and a control peptide (FITC-NSSVDK) at final blood concentrations of 50 μM were injected into the atherosclerosis-induced mice via the left ventricle of animals, followed by circulation for 15 min. Thereafter, the aortae were removed from each mouse, and frozen sections were prepared, followed by Oil Red O (fat marker, Sigma-Aldrich, USA) staining or vWF (vascular endothelial cell marker, 1:5000 dilution, Abcam, USA) and Mac-3 (macrophage marker, 1:50 dilution, BD, USA) staining (Matter et al., Circulation Research, 95:1225-1233, 2004). In order to stain nuclei in tissues, a mounting medium containing a nuclear staining dye, 4′,6-diamidino-2-phenylindole (DAPI) (manufactured by Molecular Probe, USA) was treated on a slide, according to a conventional method known in the art, followed by fluorescence microscopic examination.

IL-4R [3] = target: T1, IL-4R (Homo sapiens, UniProt P24394); assay: Bindability of peptide to IL-4R-expressing CHO-K1 cells (fluorescence microscopy); type: binding; details: 10 μM peptide, room temperature, 1 hour
T1 sequence (P24394 26-825): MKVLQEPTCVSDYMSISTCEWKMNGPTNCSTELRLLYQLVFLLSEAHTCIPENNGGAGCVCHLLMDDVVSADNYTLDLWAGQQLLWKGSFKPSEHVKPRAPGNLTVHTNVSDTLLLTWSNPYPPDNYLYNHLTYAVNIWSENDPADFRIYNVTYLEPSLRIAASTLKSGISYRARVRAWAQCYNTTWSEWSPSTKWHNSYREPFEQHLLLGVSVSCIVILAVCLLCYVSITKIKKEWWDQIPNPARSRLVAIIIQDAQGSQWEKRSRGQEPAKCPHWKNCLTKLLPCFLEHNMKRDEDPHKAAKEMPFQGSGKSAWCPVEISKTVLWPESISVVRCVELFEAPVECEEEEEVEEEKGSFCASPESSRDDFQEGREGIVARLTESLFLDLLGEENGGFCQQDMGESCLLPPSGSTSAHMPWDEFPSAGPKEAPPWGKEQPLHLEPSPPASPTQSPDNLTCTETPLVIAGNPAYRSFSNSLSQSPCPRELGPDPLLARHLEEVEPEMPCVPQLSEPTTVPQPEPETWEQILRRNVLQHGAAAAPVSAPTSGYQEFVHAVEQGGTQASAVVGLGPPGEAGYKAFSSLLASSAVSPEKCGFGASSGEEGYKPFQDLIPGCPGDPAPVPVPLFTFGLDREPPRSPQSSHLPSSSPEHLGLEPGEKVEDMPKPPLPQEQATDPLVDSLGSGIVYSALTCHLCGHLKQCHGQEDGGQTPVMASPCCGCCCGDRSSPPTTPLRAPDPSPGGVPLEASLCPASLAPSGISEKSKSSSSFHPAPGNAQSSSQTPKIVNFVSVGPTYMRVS
Description: In order to further confirm roles of IL-4R as the receptor for the peptide of the present invention, a plasmid capable of expressing IL-4R (Cat. #TC119877, Origene, USA) was introduced into IL-4R-deficient CHO-K1 cells according to a conventional method known in the art, followed by expression of IL-4R, and binding of IL-4R with the peptide of the present invention was examined.
The cells were stained with antibodies (1:200 dilution) directed against. IL-4R and cell nuclei were stained with DAPI, followed by fluorescence microscopic examination. As a result, a large amount of IL-4R (red fluorescence) was present on the cell surface (FIG. 6B). Next, CHO-K1 and CHO-K1/IL-4R cells were reacted with 10 μM of the FITC-C-RKRLDRNC peptide at room temperature for 1 hour.

IL-4R [4] = target: T1, IL-4R; assay: Bindability of peptide to HT-1376 cells with inhibited expression of IL-4R (siRNA); type: binding; parameters: HT-1376 cells that essentially show constitutive expression of IL-4R; endogenous in cells; host or cells: HT-1376; details: same conditions as in FIG. 6 (10 μM, room temperature, 1 hour)
Protocol: Silencing RNA for IL-4R (Cat. #16708A, Ambion, USA) was introduced into HT-1376 cells that essentially show constitutive expression of IL-4R, according to a conventional method known in the art, and treated for 24 hours to thereby result in substantially no expression of IL-4R, followed by evaluation of peptide binding. More specifically, 10 nM of IL-4R silencing RNA synthesized by the manufacturer was mixed with a siPORT™ NeoFX™ lipid transfection agent (Ambion, USA), and the mixture was treated for 24 hours on HT-1376 cells grown in a 4-well chamber slide, such that IL-4R silencing RNA is incorporated into the cells. Thereafter, the culture medium was replaced with one containing 10% bovine serum and the cells were recovered for 24 hours. After staining of cells with IL-4R antibodies and nuclear DAPI staining under the same conditions as in FIG. 6, a cellular expression level of IL-4R was examined. After IL-4R staining, the FITC-CRKRLDRNC peptide was reacted with the cells under the same conditions as in FIG. 6, and a binding degree of the peptide was measured.

[5] = test system: aortic atherosclerotic plaques; assay: In vivo atherosclerotic targeting of selected phage clones (phage titer recovered from aorta); parameters: species or system mice; details: tested as phage clone; SEQ ID NO: 1 versus SEQ ID NO: 2
Protocol: C57BL/6 mice (Ldlr−/−) into which deficiency of a low-density lipoprotein (LDL) receptor was introduced by a genetic engineering technique were fed daily for 10 weeks with 3 g of high-cholesterol diet, thereby inducing atherosclerosis in animals.
Thereafter, aorta were removed from each mouse and aortic tissues were ground to collect cells. The cells were treated with 100 μl of DMEM containing 1% NP-40 at 4° C. for 10 min, and 900 μl of BL21 E. coli culture as a host was then added to recover cell-bound phages. The recover phages were subjected to titer determination by a conventional method known in the art.

[6] = test system: IL-4-induced phosphorylation of STAT6; assay: IL-4-induced phosphorylation of STAT6 in THP1 monocytes differentiated into macrophages (Western blot); type: cell-based
Protocol: (§1) THP1 monocytes were treated and activated with 100 ng/mL of phorbol myristate acetate (PMA) for 3 days to thereby induce differentiation into macrophages. The culture medium was replaced with a serum-free fresh medium, and the cells were cultured for 18 hours and treated with 0.67 nM of IL-4 alone for 10 min. Meanwhile, the peptide of the present invention alone or in conjunction with IL-4 was treated at concentrations of 0.67 nM (1×, one-fold concentration that of IL-4), 6.7 nM (10×, 10-fold concentration that of IL-4) and 67 nM (100×, 100-fold concentration that of IL-4) on cells which are under the same culture phase. After the reaction was complete, cells were disrupted according to a conventional method known in the art and cell lysates were subjected to electrophoresis and Western blot analysis using antibodies. As assay antibodies, STAT6 antibody and phospho-STAT6 (P-STAT6) antibody (Cell Signaling, USA), AKT antibody and phosphor-Thr308-AKT antibody or phosphor-Ser473 AKT antibody (Santa Cruz, USA) and β-actin antibody were used.

[7] = test system: IL-4-induced phosphorylation of AKT; assay: IL-4-induced Thr308 and Ser473 phosphorylation of AKT in THP1 monocytes differentiated into macrophages (Western blot); type: cell-based
Protocol: as §1

[8] = peptide at 100-fold concentration

Molecule: ^123I-CLEVSRKNC (not fully specified (N-terminus); cysteine pairing not given here; also: 123I label, attachment not given here) [123I-tagged control peptide for autoradiography]
radioactivity resulting from aortic targeting of the peptide ([1]; aortae of atherosclerotic mice, 160 μCi (111In peptide) or 104 μCi (123I control)): substantially no detection of radioactivity | radioactivity resulting from aortic targeting of the peptide ([1]; aortae of normal mice, 104 μCi (123I control)): substantially no detection of radioactivity

binding to CHO-K1/IL-4R cells (IL-4R-expressing) (IL-4R [3]): no binding | binding to HT-1376 cells (constitutive expression of IL-4R) (IL-4R [4]): almost no binding
Molecule: FITC-NSSVDK ({FITC}-NSSVDK) [FITC-labeled control peptide, reference compound]
peptide found in aortic atherosclerotic plaque tissues (green fluorescence) [2]: substantially no control peptide was found

Molecule: CRKRLDRNC (peptide 1, completely synthesized) [peptide of the present invention]
atherosclerotic targeting, comparison of the two selected phage clones [5]: more intense atherosclerotic targeting | effect on IL-4-induced phosphorylation of STAT6 ([6]; peptide at 100-fold concentration that of IL-4 (67 nM) with 0.67 nM IL-4): significant inhibitory effects | amount of total STAT6 proteins ([6]; peptide with IL-4): not affected | antagonistic effect on Ser473 phosphorylation of AKT relative to Thr308 [7, 8]: greater antagonistic effects | level of Ser473 phosphorylation of AKT versus control group not treated with IL-4 [7, 8]: inhibited to a lower level than that of the control group | effect on IL-4-induced phosphorylation of AKT (Thr308 and Ser473) ([7]; peptide at 100-fold concentration (67 nM) with 0.67 nM IL-4): inhibited

B1: IL-4: cytokine used as stimulus of STAT6 and AKT phosphorylation (protein)
chain: HKCDITLQEIIKTLNSLTEQKTLCTELTVTDIFAASKNTTEKETFCRAATVLRQFYSHHEKDTRCLGATAQQFHRHKQLIRFLKRLDRNLWGLAGLNSCPVKEANQSTLENFLERLKTIMREKYSKCSS
phosphorylation of STAT6 induced by IL-4 ([6]; 0.67 nM IL-4 alone, 10 min): significant increase | Thr308 and Ser473 phosphorylation of AKT induced by IL-4 ([7]; 0.67 nM IL-4, 10 min): slightly increased
